Among the data in ChEMBL document CHEMBL1201862, “PubChem BioAssay data set” (2004) are IC50 values, retold here.

Calls of active or inactive are those of the source. No stated cut-off is given here; in the data, actives have a measured IC50 and inactives only a lower limit.

By IC50 is commonly meant the concentration at which inhibition is half-maximal.

Sequence of Envelope glycoprotein gp160 (Q6QLK5 whole entry, the tested form may be a part): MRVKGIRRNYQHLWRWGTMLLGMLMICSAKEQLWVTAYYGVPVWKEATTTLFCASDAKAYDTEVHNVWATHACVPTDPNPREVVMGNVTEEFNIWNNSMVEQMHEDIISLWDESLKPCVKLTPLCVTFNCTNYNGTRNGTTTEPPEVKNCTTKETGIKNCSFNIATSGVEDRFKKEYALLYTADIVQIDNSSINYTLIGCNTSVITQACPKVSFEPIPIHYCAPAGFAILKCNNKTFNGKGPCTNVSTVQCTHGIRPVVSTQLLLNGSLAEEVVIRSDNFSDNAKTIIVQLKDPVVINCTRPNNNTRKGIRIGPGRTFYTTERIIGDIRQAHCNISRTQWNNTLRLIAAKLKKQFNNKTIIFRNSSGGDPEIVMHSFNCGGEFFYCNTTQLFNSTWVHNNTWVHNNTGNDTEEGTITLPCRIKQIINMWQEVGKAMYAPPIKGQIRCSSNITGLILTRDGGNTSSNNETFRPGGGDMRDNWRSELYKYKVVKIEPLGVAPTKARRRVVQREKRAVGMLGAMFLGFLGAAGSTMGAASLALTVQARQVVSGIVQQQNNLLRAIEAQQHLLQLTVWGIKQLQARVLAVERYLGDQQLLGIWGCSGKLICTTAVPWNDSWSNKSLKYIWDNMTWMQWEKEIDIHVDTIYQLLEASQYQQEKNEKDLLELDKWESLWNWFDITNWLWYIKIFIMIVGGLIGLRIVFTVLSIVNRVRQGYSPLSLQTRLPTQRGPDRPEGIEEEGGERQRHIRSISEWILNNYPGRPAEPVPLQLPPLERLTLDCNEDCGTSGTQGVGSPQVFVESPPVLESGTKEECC

This assay has as its target Envelope glycoprotein gp160 (Human immunodeficiency virus 1, UniProt Q6QLK5). Kind of assay: inhibitors of HIV fusion peptide binding, primary screen, biochemical, uHTS, fluorescence dequenching (AID 1986).
Consider `Cc1ccc(Cl)cc1N1CCN(C(=O)Cc2c(C(=O)O)[nH]c3ccc(Cl)cc23)CC1`, for which the IC50 was 24.5 µM (active). In the case of `O=C(O)C(c1ccccc1)N1C(=O)/C(=C\c2ccc(O)c(O)c2)SC1=S` (stereo unspecified), the half-maximal inhibitory concentration (IC50) was 13.2 µM (active).

Consider `COc1ccc2c(c1)cc(C(=O)N/N=C/c1c(O)c(C(=O)O)cc3ccccc13)n2C`, for which the half-inhibitory concentration (IC50) is 7.59 µM (active). Consider `O=C(O)/C=C/C(=O)Nc1ccc(C2(c3ccc(NC(=O)/C=C/C(=O)O)cc3)c3ccccc3-c3ccccc32)cc1`, for which the IC50 was 15 µM (active). The value for `Cc1ccc(N2C(=O)/C(=C/c3ccc(CN(CCC#N)S(C)(=O)=O)o3)C(=O)NC2=S)cc1C` was 21.6 µM (active); that for `O=C(COc1cccc2ccccc12)Nc1ccc(Cl)cc1C(=O)O` was 31.3 µM (active).
